Assay results published in BindingDB's records for doi:10.1016/j.bmcl.2005.11.092 (Astrazeneca R&D, 2006).

molecular target: Metabotropic glutamate receptor 5 (Homo sapiens, UniProt P41594); experiment: Inhibition of glutamate-induced calcium influx in human mGluR5d by FLIPR
Sequence (P41594 whole entry): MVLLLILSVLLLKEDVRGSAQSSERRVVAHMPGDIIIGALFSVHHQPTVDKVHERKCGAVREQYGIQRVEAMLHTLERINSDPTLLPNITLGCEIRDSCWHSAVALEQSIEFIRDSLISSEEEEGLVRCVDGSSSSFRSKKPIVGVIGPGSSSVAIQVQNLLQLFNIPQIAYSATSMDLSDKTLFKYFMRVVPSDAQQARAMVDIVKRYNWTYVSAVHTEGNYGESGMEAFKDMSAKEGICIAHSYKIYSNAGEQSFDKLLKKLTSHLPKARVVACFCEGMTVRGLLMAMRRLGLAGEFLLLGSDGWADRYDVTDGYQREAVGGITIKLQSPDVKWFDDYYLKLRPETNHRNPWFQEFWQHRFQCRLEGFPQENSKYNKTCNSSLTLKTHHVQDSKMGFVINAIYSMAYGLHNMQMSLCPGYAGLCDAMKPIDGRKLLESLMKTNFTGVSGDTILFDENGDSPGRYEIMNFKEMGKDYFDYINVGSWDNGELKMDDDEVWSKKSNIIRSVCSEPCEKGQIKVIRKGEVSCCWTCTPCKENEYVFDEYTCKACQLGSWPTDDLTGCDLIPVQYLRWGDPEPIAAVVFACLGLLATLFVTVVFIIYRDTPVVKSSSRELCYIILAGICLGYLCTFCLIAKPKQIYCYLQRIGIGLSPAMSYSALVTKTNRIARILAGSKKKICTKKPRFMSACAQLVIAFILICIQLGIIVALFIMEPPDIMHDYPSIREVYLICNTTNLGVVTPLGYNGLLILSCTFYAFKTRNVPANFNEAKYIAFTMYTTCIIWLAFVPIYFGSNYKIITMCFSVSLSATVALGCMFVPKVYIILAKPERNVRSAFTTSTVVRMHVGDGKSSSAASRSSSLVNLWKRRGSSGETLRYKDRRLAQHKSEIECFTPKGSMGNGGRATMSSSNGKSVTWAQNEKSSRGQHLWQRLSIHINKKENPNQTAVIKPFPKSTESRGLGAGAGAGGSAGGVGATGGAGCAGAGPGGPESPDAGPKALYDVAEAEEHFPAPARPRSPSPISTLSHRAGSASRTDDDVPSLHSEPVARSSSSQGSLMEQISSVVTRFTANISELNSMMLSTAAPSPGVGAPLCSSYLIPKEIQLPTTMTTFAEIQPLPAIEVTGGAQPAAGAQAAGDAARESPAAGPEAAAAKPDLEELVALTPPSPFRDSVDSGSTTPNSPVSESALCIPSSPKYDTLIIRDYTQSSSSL

Compound	IC50 [µM]
O=C(Nc1ccc(Cl)cc1)Nc1nc(O)c2n1CCC2 [1-(4-chlorophenyl)-3-(1-oxo-hexahydropyrrolo[1,2-e]imidazol-3-ylidene)urea]	> 10
Cc1ccc(NC(=O)Nc2nc(O)c3n2CCC3)cc1Cl [1-(3-chloro-4-methylphenyl)-3-(1-oxo-hexahydropyrrolo[1,2-e]imidazol-3-ylidene)urea]	> 10
CCCCCCNC(=O)Nc1nc(O)cn1C [1-hexyl-3-(1-methyl-4-oxoimidazolidin-2-ylidene)urea]	> 10
COC(=O)c1cccc(NC(=O)Nc2nc(O)cn2C)c1 [methyl 3-(3-(1-methyl-4-oxoimidazolidin-2-ylidene)ureido)benzoate]	> 10
Cn1cc(O)nc1NC(=O)Nc1cc(Cl)cc(Cl)c1 [1-(3,5-dichlorophenyl)-3-(1-methyl-4-oxoimidazolidin-2-ylidene)urea]	> 10

Now from value to compound:

IC50 [µM]	Compound
> 10	Cc1ccc(C)c(NC(=O)Nc2nc(O)c3n2CCC3)c1 [1-(2,5-dimethylphenyl)-3-(1-oxo-hexahydropyrrolo[1,2-e]imidazol-3-ylidene)urea]
> 10	Cc1ccccc1NC(=O)Nc1nc(O)c2n1CCC2 [1-(1-oxo-hexahydropyrrolo[1,2-e]imidazol-3-ylidene)-3-o-tolylurea]
> 10	Cc1cccc(NC(=O)Nc2nc(O)c3n2CCC3)c1C [1-(2,3-dimethylphenyl)-3-(1-oxo-hexahydropyrrolo[1,2-e]imidazol-3-ylidene)urea]
4.9	Cn1cc(O)nc1NC(=O)Nc1ccccc1 [(E)-1-(1-methyl-4-oxoimidazolidin-2-ylidene)-3-phenylurea]
4.9	Cn1cc(O)nc1NC(=O)Nc1cccs1 [1-(1-methyl-4-oxoimidazolidin-2-ylidene)-3-(thiophen-2-yl)urea]
